From ChEMBL document CHEMBL3881527, “Multi-functional small molecules as anti-proliferative agents” (2008) come the findings set out here.

A short description of data set [1]: Drug uptake in iv dosed Sprague-Dawley rat plasma administered in 30% captisol as 5 mins infusion. In kind it is ADME, organism-based. The following applies: in vivo.
A short description of data set [2]: Solubility of the compound at pH 2 to 3. It is filed as physicochemical. The following applies: buffer.
The next data set has as its system Colon. The data set is described as follows: Cmax in CD1 mouse colon at 20 mg/kg, iv administered in 30% captisol as 2 mins infusion by LC/MS/MS analysis. It is filed as ADME, organism-based. More on the design: dose 20 mg/kg, route intravenous. The following applies: in vivo.
Data set [3] is described as follows: Chemical stability in diluted solution. It is filed as physicochemical.
Data set [4] in a line: Solubility of the compound at pH 3 to 4. It is filed as physicochemical. The following applies: buffer.
Data set [5] in a line: Solubility of the compound at pH 4 to 5. The following applies: buffer. In kind it is physicochemical.

As for `C#Cc1cccc(Nc2ncnc3cc(OC)c(OCCCCCCC(=O)NO)cc23)c1.Cl`, in data set [1], the Drug uptake entry was “Dose-dependent effect”. The solubility in data set [2] is 25 mg/mL. The peak concentration (Cmax) in the data set on Colon was found to be 8.5 µM. This compound came in with a Stability in data set [3] of more than 12 h.
As for `C#Cc1cccc(Nc2ncnc3cc(OC)c(OCCCCCCC(=O)NO)cc23)c1.O=C(O)C(O)C(O)C(=O)O`, the solubility in data set [4] is 60 mg/mL. In data set [3], the Stability is more than 12 h.
In the case of `C#Cc1cccc(Nc2ncnc3cc(OC)c(OCCCCCCC(=O)NO)cc23)c1.O=C(O)CC(O)(CC(=O)O)C(=O)O`, the Stability in data set [3] is more than 12 h. For the same compound, in data set [5], the solubility was 25 mg/mL.
